From patent publication US20260062422A1 (Halda Therapeutics OpCo, Inc., priority 2022, published 2026) come the findings set out here.

One test concerns the target T1, BRD4-BD2 (Homo sapiens, UniProt O60885).
T1 construct: made in house; host or cells: T7 phage grown in an E. coli host derived from BL21
Put plainly: bromoKdELECT assay for binding affinity to BRD4-BD2. Particulars: Table 7. The method, then:
Compounds were tested using a bromoKdELECT assay. T7 phage strains displaying bromodomains were grown in parallel in 24-well blocks in an E. coli host derived from the BL21 strain. E. coli were grown to log-phase and infected with T7 phage from a frozen stock (multiplicity of infection=0.4) and incubated with shaking at 32° C. until lysis (90-150 minutes). The lysates were centrifuged (5,000×g) and filtered (0.2 μm) to remove cell debris. Streptavidin-coated magnetic beads were treated with biotinylated small molecule or acetylated peptide ligands for 30 minutes at room temperature to generate affinity resins for bromodomain assays. The liganded beads were blocked with excess biotin and washed with blocking buffer (SeaBlock (Pierce), 1% BSA, 0.05% Tween 20, 1 mM DTT) to remove unbound ligand and to reduce nonspecific phage binding. Binding reactions were assembled by combining bromodomains, liganded affinity beads, and test compounds in 1× binding buffer (17% SeaBlock, 0.33×PBS, 0.04% Tween 20, 0.02% BSA, 0.004% Sodium azide, 7.4 mM DTT). Test compounds were prepared as 1000× stocks in 100% DMSO. Kds were determined using an 11-point 3-fold compound dilution series with one DMSO control point. All compounds for Kd measurements are distributed by acoustic transfer (non-contact dispensing) in 100% DMSO. The compounds were then diluted directly into the assays such that the final concentration of DMSO was 0.09%. All reactions performed in polypropylene 384-well plates. Each was a final volume of 0.02 ml. The assay plates were incubated at room temperature with shaking for 1 hour and the affinity beads were washed with wash buffer (1×PBS, 0.05% Tween 20). The beads were then resuspended in elution buffer (1×PBS, 0.05% Tween 20, 2 μM non-biotinylated affinity ligand) and incubated at room temperature with shaking for 30 minutes. The bromodomain concentration in the eluates was measured by qPCR.

For another test, the target named is T2, progesterone receptor (Homo sapiens, UniProt P06401).
T2 construct: host or cells: T47D cells (cytosolic fraction)
T2 sequence (P06401 1-933): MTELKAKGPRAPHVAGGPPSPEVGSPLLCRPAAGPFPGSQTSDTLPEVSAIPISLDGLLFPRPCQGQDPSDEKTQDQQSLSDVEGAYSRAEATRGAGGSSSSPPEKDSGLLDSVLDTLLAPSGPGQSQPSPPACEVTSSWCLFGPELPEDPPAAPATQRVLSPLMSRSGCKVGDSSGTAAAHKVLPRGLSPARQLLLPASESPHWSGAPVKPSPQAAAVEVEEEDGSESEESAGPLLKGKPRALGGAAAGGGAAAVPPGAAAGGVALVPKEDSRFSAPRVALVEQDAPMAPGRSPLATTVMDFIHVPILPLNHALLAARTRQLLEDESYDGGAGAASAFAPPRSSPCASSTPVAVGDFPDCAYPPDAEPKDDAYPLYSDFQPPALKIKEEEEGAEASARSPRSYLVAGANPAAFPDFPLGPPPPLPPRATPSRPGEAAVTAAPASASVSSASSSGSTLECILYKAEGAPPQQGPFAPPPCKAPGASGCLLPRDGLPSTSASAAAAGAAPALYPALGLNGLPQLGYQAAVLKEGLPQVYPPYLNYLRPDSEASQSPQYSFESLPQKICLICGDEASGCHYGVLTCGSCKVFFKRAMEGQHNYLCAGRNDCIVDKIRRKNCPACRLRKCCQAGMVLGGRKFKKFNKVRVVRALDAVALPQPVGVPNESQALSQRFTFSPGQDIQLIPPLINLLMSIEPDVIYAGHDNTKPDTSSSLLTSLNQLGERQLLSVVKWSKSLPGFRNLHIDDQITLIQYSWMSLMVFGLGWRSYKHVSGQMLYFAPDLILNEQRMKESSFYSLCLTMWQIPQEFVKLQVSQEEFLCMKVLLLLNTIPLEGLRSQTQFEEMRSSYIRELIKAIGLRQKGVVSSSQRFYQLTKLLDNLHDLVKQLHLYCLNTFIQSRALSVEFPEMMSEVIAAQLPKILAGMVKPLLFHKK
In words: PR Human Progesterone NHR Binding (Agonist Radioligand) Assay, T47D cytosol. Particulars: T47D cytosolic fractions, 0.5 nM [3H]progesterone, 1 hour at 4° C., Table 16. As for the experimental part:
Compounds were tested using the PR Human Progesterone NHR Binding (Agonist Radioligand) Assay, Cerep at Eurofins Discovery using a modified version of the protocol from Sarup et al. (Cancer Res 1988; 48:5071-5078). Briefly, cytosolic fractions of T47D cells were incubated with 0.5 nM [^3H]progesterone for 1 hour at 4° C. in the absence or presence of the test compound. Nonspecific binding was determined in the presence of 1 μM promegestone. Reactions were subjected to scintillation counting. Results are expressed as a percent inhibition of the control radioligand specific binding.

What is called Kd is the equilibrium constant for the complex coming apart. In general, Ki refers to the equilibrium dissociation constant of an inhibitor or competing ligand from its target. On to `CCNC(=O)C[C@@H]1N=C(c2ccc(OCC3CN(c4ncc(C(=O)N[C@H]5C(C)(C)[C@H](Oc6ccc(C#N)c(Cl)c6)C5(C)C)cn4)C3)cc2)c2c(sc(C)c2C)-n2c(C)nnc21` [Compound I-71], for which the Kd at BRD4-BD2 was below 50 nM. At progesterone receptor, this compound registered an inhibitory constant (Ki) below 50 nM.
Regarding `CCNC(=O)C[C@@H]1N=C(c2ccc(N3CCC(OC4CCN(c5ncc(C(=O)N[C@H]6C(C)(C)[C@H](Oc7ccc(C#N)c(Cl)c7)C6(C)C)cn5)CC4)CC3)cc2)c2c(sc(C)c2C)-n2c(C)nnc21` [Compound I-114], at BRD4-BD2, the Kd lay within 500 to 2500 nM. Besides, the Ki on progesterone receptor was below 50 nM.
At BRD4-BD2, `Cc1sc2c(c1C)C(c1ccc(OCCOC3CCN(c4ncc(C(=O)N[C@H]5C(C)(C)[C@H](Oc6ccc(C#N)c(Cl)c6)C5(C)C)cn4)CC3)cc1)=N[C@@H](CC(=O)OC(C)(C)C)c1nnc(C)n1-2` [Compound I-235, tert-butyl 2-((S)-4-(4-(2-((1-(5-(((1r,3r)-3-(3-chloro-4-cyanophenoxy)-2,2,4,4-tetramethylcyclobutyl)carbamoyl)pyrimidin-2-yl)piperidin-4-yl)oxy)ethoxy)phenyl)-2,3,9-trimethyl-6H-thieno[3,2-f][1,2,4]triazolo[4,3-a][1,4]diazepin-6-yl)acetate] returned a Kd above 2500 nM. Further, the Ki on progesterone receptor is below 50 nM.
For the compound `Cc1sc2c(c1C)C(c1ccc(N3CC(C4CCN(c5ncc(C(=O)N[C@H]6C(C)(C)[C@H](Oc7ccc(C#N)c(Cl)c7)C6(C)C)cn5)CC4)C3)cc1)=N[C@@H](C)c1nnc(C)n1-2` [Compound I-271], the Ki on progesterone receptor was below 50 nM.
Same read-out and setting: next, `Cc1sc2c(c1C)C(c1ccc(OC3CC4(C3)CC3(CCN(c5ncc(C(=O)N[C@H]6C(C)(C)[C@H](Oc7ccc(C#N)c(Cl)c7)C6(C)C)cn5)CC3)C4)cc1)=N[C@@H](Cc1ncco1)c1nnc(C)n1-2` [Compound I-283]: below 50 nM.
The same measure, in the same setting: next, `Cc1sc2c(c1C)C(c1ccc(CC3CC4(CCN(c5ncc(C(=O)N[C@H]6C(C)(C)[C@H](Oc7ccc(C#N)c(Cl)c7)C6(C)C)cn5)CC4)C3)cc1)=N[C@@H](C)c1nnc(C)n1-2` [Compound I-303]: below 50 nM.
On the same count and under the same terms, next, `Cc1sc2c(c1C)C(c1ccc(CC3CC4(CCN(c5ncc(C(=O)N[C@H]6C(C)(C)[C@H](Oc7ccc(C#N)c(Cl)c7)C6(C)C)cn5)CC4)C3)cc1)=N[C@@H](C)c1nnc(C)n1-2` [Compound I-436]: 50 to 500 nM.
